According to PMC4370629, “Structural and Functional Studies of Phosphoenolpyruvate Carboxykinase from Mycobacterium tuberculosis” (PLoS ONE, 2015):
pKd: −log10 of the molar value.

Target: T1, Mtb Pck (Mycobacterium tuberculosis, UniProt P9WIH3)
T1 construct: gene pckG
Test: biochemical

T1 sequence (P9WIH3 whole entry): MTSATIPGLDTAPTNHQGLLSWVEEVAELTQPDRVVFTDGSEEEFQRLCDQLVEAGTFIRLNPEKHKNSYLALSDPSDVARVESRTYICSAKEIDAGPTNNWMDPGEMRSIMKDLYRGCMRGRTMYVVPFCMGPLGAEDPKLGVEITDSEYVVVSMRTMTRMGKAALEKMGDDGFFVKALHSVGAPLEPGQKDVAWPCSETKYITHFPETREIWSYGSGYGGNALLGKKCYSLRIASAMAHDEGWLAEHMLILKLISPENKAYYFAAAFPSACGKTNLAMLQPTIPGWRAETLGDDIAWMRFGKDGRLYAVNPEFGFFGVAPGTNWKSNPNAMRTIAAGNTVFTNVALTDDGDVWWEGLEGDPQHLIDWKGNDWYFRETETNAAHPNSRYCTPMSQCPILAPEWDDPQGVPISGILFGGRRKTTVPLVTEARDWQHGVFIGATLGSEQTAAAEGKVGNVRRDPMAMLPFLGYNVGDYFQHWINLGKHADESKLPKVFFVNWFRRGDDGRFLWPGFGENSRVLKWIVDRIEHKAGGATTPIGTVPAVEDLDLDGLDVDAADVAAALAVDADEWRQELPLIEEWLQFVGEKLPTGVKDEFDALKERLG

Nc1nc2c(ncn2[C@@H]2O[C@H](COP(=O)(O)OP(=O)(O)OP(=O)(O)O)[C@@H](O)[C@H]2O)c(=O)[nH]1 [GTP]
pKd: 5.14
